Seven molecules from patent US5610174A, “Use of α1A -selective adrenoceptor agonists for the treatment of urinary incontinence” (priority 1995, dated 1997) can be followed below.

In assay [1] the target is T1, human α1C adrenoceptor (Homo sapiens, UniProt P35348).
T1 sequence (P35348 1-466): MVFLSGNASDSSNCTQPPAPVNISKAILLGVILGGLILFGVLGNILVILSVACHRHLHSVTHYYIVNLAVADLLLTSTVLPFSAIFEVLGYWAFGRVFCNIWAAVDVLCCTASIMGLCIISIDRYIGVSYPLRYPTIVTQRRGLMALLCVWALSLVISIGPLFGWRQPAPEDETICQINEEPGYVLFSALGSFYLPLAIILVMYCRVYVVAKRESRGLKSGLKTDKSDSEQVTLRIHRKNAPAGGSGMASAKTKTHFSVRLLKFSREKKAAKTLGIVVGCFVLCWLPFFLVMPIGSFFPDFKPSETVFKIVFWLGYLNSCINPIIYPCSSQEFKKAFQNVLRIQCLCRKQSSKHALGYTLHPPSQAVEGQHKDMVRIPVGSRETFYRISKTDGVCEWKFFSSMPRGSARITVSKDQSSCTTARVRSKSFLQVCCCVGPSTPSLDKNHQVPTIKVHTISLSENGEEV
In words: cell-based. It counts as cell-based. The settings on record: for Emax: read-out: intrinsic activity (i.a.) α1C; for EC50: agonist, phosphoinositide accumulation, read-out: pEC50 α1C (converted). The method, then:
α1 -Adrenoceptor-Mediated Phosphoinositide Accumulation in Cultured Cell Lines
The agonist activity of test compounds was assayed by measuring their ability to generate phosphoinositide production in cells stably transfected with each of the three cloned human α1 -adrenoceptor subtypes. Cells were plated in 96-well plates and grown to confluence. The day before the assay the growth medium was changed to 100 μl of medium containing 1% serum and 0.5 μCi [^3 H] myo-inositol, and the plates were incubated overnight in a CO2 incubator (5% CO2 at 37° C.). Immediately before the assay, the medium was removed and replaced by 200 μl of PBS containing 10 mM LiCl, and the cells were equilibrated with the new medium for 20 min. During this interval cells were also equilibrated with the antagonist, added as 10 μl aliquot of a 20-fold concentrated solution in PBS.
The [^3 H] inositol-phosphate (IP) accumulation was started by adding 10 μl of a solution containing the agonist. To the first well 10 μl were added to measure basal accumulation, and 11 different concentrations of agonist were assayed in the following 11 wells of each plate row. All assays were performed in duplicate by repeating the same additions in two consecutive plate rows. The plates were incubated in a CO2 incubator for 1 hr. The reaction was terminated by adding 15 μl of 50% (v/v) trichloroacetic acid (TCA), followed by a 40 min incubation at 4° C.
After neutralizing TCA with 40 μl of 1 M Tris, the content of the wells was transferred to a Multiscreen HV filter plate (Millipore) containing Dowex AG1-X8 (200-400 mesh, formate form). The filter plates were prepared adding 200 μl of Dowex AG1-X8 suspension (50% v/v, water:resin) to each well. The filter plates were placed on a vacuum manifold to wash or eluted the resin bed. Each well was washed 2 times with 200 μl of water, followed by 2×200 μ of 5 mM sodium tetraborate/60 mM ammonium formate. The [3H] IPs were eluted into empty 96-well plates with 200 μl of 1.2 M ammonium formate/0.1 formic acid. The content of the wells was added to 3 mls of scintillation cocktail, and the radioactivity was determined by liquid scintillation counting.

The target of assay [2] is T2, human α2C adrenoceptor (Homo sapiens, UniProt P18825).
T2 construct: expressed in transfected cells; host or cells: LM(tk-)
T2 sequence (P18825 1-462): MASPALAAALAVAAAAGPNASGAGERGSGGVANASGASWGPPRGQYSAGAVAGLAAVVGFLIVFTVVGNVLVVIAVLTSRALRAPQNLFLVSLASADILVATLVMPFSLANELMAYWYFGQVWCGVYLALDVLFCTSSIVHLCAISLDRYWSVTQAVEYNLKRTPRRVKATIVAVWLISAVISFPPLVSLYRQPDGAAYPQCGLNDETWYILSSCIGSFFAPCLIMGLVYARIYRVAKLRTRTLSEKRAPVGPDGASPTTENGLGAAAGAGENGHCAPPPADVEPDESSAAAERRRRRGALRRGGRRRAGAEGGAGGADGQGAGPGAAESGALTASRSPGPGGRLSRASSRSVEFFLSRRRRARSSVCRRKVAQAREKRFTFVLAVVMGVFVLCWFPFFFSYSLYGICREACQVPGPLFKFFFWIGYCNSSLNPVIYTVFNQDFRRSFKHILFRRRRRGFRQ
In words: Inhibition of forskolin stimulated adenylyl cyclase, α2C. The settings on record: for EC50: agonist, inhibition of forskolin stimulated adenylyl cyclase, read-out: pEC50 α2C (converted); for Emax: read-out: intrinsic activity (i.a.) α2C. In kind it is cell-based. The method, then: α2 -Adrenoceptor-Mediated Inhibition of Forskolin Stimulated Adenylyl Cyclase
The agonist activity of test compounds was assayed by measuring their ability to inhibit adenylyl cyclase in cells stably transfected with each of the three cloned human α2 -adrenoceptors. LM(tk-) cells expressing the α2A - or the α2C -, as well as Y1 cells expressing the α2B -adrenoceptor were used. […] The formation of cyclic AMP was measured in cultures incubated with DMEM containing 1 mM theophylline. Twelve concentrations of the test compounds (from 10 pM to 100 μM) were added to the incubation medium and incubated at 37° C. for 20 min. Following this incubation step, 10 μM forskolin was added to stimulate the formation of cyclic AMP, and the cultures were incubated for another 10 min. The reaction was stopped by replacing the incubation medium with 100 mM HCl . The intracellular levels of cyclic AMP were measured by radioimmunoassay. The data from concentration-response curves was fitted to a four-parameter logistic equation, by non-linear regression analysis, to determine the pEC50 and intrinsic activity.

The mark [3] stands for this setting: relative to reference full agonist (e.g., norepinephrine = unity).

pEC50: −log10 of the molar value. Where two headings read alike, the source gives them in different places.

`CS(=O)(=O)Nc1c(O)ccc2c1CCCC2C1=NCCN1` (racemic) [Compound A-61603, (±)-N-[5-(4,5-Dihydro-1H-imidazol-2-yl)-2-hydroxy-5,6,7,8-tetra-hydronaphthalen-1-yl]methanesulfonamide]: the Emax was 120% in assay [1] (setting [3]) and 90% in assay [2] (setting [3]). The “stimulation of inositol phosphate production, α1C” value in assay [1] (result in words) is listed as “fully stimulate”. Besides, the EC50 in assay [2] was 0.02 µM.
As usually defined, the pEC50 is the negative decadic logarithm of the EC50, by convention in mol/L. Low values mean a large EC50, high ones a small EC50. As for `COc1ccc(OC)c(C(O)CN)c1` (racemic) [ST-1059, (±)-2-Amino-1-(2, 5 dimethoxyphenyl) ethanol], the pEC50 in assay [1] is 5.70; in assay [2], 6.30. The Emax in assay [1] (setting [3]) is 90%; in assay [2], 50%.
As for `COc1ccc(SC)c2c1C[C@@H]1[C@@H](C2)OCCN1C` (relative stereo) [SDZ NVI-085, (±)-trans-4-Methyl-6-methoxy-9-thiomethoxy-3,4,4a, 5,10,10a-hexahydro-2H-naphtho[2,3-b][1,4]oxazine], the EC50 was 0.398 µM in assay [1] and more than 100 µM in assay [2]. In addition, the Emax in assay [1] (setting [3]) came to 110%; in assay [2], 0%.
Take `CN[C@@H](C)[C@H](O)c1ccccc1` [(-)-ephedrine]: the EC50 in assay [1] is 100 µM. Also, the Emax in assay [1] (setting [3]) was 10%; in assay [2], 0%. The molecule also had a pEC50 in assay [2] of 5.00.
In the same order, the values of `C[C@H](N)[C@H](O)c1ccccc1` [(-)-norephedrine] are 50.1 µM, 40%, 60% and 6.90.
Take `CNC[C@H](O)c1cccc(O)c1` [(-)-phenylephrine]: the Emax in assay [1] (setting [3]) came out at 90%. The “intrinsic activity (i.a.) α2C” value in assay [2] (setting [3]) is 0.9.
For the molecule `CNCCc1ccc(O)c(NS(C)(=O)=O)c1` [SK&F 102652], in assay [1], the “stimulation of inositol phosphate production, α1C” value is listed as “fully stimulate”. Further, the Emax in assay [1] was found to be 110%; in assay [2], 80%.
